Measured values from paper PMC4336569 (European journal of medicinal chemistry, 2014).
“Also recorded” adds a separate entry of the source.

Tests used:
CCI-exposed rats [1] = test: von Frey test; details: for Response (ED50) with 95% confidence limits, von Frey: neuropathic pain
CCI-exposed rats [2] = test: Cold plate test; details: for Response (ED50) with 95% confidence limits, Cold plate: neuropathic pain
naïve rats = test: Tail-flick test; details: for effect in tail-flick test: i.t., 30 min after administration; for effect in tail-flick test / toxic effect / Response (ED50) with 95% confidence limits, Tail-flick: naïve rats; for duration of antinociceptive effect: after intrathecal administration, data not shown; for antinociceptive effect in acute pain: 1 nmol i.t.; for toxic effect: 9.5 nmol i.t.; for Response (ED50) with 95% confidence limits, Tail-flick: acute pain
mice [3] = test: Tail-flick test
MOR [4] = test: Functional GPI; assay type: biochemical, guinea pig
DOR [5] = target: DOR (Mus musculus, UniProt P32300); test: Functional mouse vas deferens; assay type: biochemical; details: from 22 to 33, MVD assay
DOR (Mus musculus, UniProt P32300), sequence (P32300 whole entry): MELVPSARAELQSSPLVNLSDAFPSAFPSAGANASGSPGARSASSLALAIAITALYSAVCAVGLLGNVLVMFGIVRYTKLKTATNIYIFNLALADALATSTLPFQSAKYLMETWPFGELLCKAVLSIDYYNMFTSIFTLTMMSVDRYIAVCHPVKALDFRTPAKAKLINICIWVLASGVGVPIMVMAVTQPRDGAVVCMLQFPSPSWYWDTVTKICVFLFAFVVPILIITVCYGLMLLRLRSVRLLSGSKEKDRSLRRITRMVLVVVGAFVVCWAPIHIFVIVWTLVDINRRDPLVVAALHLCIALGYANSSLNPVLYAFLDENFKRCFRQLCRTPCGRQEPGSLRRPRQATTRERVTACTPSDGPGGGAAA

hNK1R [6] = target: T1, hNK1R (Homo sapiens, UniProt P25103); test: hNK1/CHO cell membrane radioligand binding assay
T1 sequence (P25103 whole entry): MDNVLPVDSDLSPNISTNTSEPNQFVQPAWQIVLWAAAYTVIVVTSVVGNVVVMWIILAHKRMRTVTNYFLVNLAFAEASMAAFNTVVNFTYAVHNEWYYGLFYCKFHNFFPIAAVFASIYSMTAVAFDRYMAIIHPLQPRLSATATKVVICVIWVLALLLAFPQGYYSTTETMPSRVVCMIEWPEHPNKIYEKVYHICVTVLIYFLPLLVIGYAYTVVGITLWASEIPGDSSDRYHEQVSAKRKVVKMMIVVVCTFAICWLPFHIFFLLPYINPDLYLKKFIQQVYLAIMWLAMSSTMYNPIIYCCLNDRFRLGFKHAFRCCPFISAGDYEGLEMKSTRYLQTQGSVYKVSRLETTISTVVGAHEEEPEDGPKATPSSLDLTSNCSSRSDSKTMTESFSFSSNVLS

CCI-exposed rats [7] = test: Cross tolerance with morphine in neuropathic pain model; assay type: in vivo, rat; details: for cross tolerance with morphine: single dose of morphine 3.5 nmol on day 13 after repeated hybrid 1 nmol i.t.
hNK1R [8] = target: T1, hNK1R; test: Functional NK1R assay; assay type: cell-based; details: compared to lead compound 4
DOR [9] = target: DOR (Rattus norvegicus, UniProt P33533); test: Opioid receptor binding assay, [3H]DSLET displacement
DOR (Rattus norvegicus, UniProt P33533), sequence (P33533 whole entry): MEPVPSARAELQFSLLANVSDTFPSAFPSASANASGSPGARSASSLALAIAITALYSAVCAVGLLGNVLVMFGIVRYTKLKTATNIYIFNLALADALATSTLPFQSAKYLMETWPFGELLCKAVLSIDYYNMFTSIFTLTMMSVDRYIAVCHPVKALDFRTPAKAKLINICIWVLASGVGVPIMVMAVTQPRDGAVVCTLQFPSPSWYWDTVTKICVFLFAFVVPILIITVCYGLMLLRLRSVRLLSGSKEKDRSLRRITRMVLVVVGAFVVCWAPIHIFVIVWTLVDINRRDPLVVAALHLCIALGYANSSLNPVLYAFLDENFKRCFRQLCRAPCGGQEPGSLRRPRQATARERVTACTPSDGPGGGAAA

CCI-exposed rats [10] = test: Tolerance development in neuropathic pain model; assay type: in vivo, rat; details: von Frey and cold plate, repeated i.t. 1 nmol
MOR [11] = target: MOR (Rattus norvegicus, UniProt P33535); test: Opioid receptor binding assay, [3H]DAMGO displacement; details: vs 4 (Gly4 replaced by β-Ala)
MOR (Rattus norvegicus, UniProt P33535), sequence (P33535 whole entry): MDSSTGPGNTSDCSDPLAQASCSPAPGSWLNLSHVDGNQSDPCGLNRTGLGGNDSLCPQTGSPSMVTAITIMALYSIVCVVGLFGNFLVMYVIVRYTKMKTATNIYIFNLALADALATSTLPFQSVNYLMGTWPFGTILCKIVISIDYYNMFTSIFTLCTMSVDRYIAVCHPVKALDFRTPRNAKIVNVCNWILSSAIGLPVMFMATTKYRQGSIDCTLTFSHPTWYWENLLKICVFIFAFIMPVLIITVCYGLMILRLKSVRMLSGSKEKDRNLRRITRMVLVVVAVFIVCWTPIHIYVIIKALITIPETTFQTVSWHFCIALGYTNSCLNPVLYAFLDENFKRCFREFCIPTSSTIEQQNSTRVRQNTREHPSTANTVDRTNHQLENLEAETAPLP

mice [12] = details: 3.8 μmol/kg i.v., previous study; cited from earlier work

SMILES: CC(=O)N[C@H]1Cc2ccccc2CN(CC(=O)N(C)Cc2cc(C(F)(F)F)cc(C(F)(F)F)c2)C1=O [Compound 6, Ac-Aba-Gly-NMe-3’,5’-(CF3)2-Bn]
- antiallodynic activity (CCI-exposed rats [1]; i.t., day 7 after CCI): significantly more potent than the opioid parent compounds
- effect on hyperalgesia (CCI-exposed rats [2]; i.t., day 7 after CCI): more potent in antagonizing hyperalgesia than hybrid 4 and approximately similar to 22
- effect in tail-flick test (naïve rats): very weak
- activity in tail-flick test after i.v. administration (mice [3]; doses up to 1.21 μmol/kg i.v., not shown): did not show any activity at all; also recorded: not active at all

SMILES: Cc1cc(O)cc(C)c1C[C@H](N)C(=O)N[C@H](CCCNC(=N)N)C(=O)N[C@H]1Cc2ccccc2CN(CC(=O)N(Cc2cc(C(F)(F)F)cc(C(F)(F)F)c2)CC(C)C)C1=O [Compound 27, H-Dmt-D-Arg-Aba-Gly-NiBu-3’,5’-(CF3)2-Bn]
- IC50 (MOR [4]; read-out: GPI (IC50 nM), representative of MOR activation): 19.7 nM

SMILES: Cc1cc(O)cc(C)c1C[C@H](N)C(=O)N[C@H](CCCNC(=N)N)C(=O)N[C@H]1Cc2ccccc2CN(CC(=O)N(Cc2ccccc2)CC(C)C)C1=O [Compound 28, H-Dmt-D-Arg-Aba-Gly-NiBu-Bn]
- GPI agonist character (MOR [4]; GPI): P.A ^e

SMILES: Cc1cc(O)cc(C)c1C[C@H](N)C(=O)N[C@H](CCCNC(=N)N)C(=O)N[C@H]1Cc2ccccc2CN(CCC(N)=O)C1=O [Compound 33, H-Dmt-D-Arg-Aba-β-Ala-NH2]
- toxic effect (CCI-exposed rats [1]; 1 nmol i.t., CCI rats): toxic effect
- duration of antinociceptive effect (naïve rats): 2 h
- effect in tail-flick test (naïve rats): increase the nociceptive threshold
- shift in DOR potency (DOR [5]): 10 fold
- antinociceptive response (mice [3]; 1.21 μmol/kg i.v., mice): largely exceeded that of morphine

SMILES: Cc1cc(O)cc(C)c1C[C@H](N)C(=O)N[C@H](CCCNC(=N)N)C(=O)N[C@H]1Cc2ccccc2CN(CCC(=O)N(C)Cc2ccccc2)C1=O [Compound 22, H-Dmt-D-Arg-Aba-β-Ala-NMe-Bn]
- toxic effect (CCI-exposed rats [1]; 1 nmol i.t., CCI rats): not observed
- attenuation of allodynia, von Frey (CCI-exposed rats [1]; 1 nmol i.t., day 7 after CCI): 80 % MPE
- toxic signs (CCI-exposed rats [1]; i.t., CCI rats, doses up to 11 nmol): lack of toxic signs
- Response (ED50) with 95% confidence limits, von Frey (CCI-exposed rats [1]; day 7 after CCI): 0.24 (0.18 - 0.32) nmol i.t.
- improvement of NK1R binding affinity (hNK1R [6]; vs 21): approximately 4 times
- effect of a single dose in rats rendered tolerant to morphine (CCI-exposed rats [7]; 22 1 nmol i.t. after repeated morphine 3.5 nmol): not effective
- cross tolerance with morphine (CCI-exposed rats [7]): cross tolerance
- toxicity (CCI-exposed rats [2]; 10 nmol i.t., not shown): lacking toxicity
- Response (ED50) with 95% confidence limits, Cold plate (CCI-exposed rats [2]; day 7 after CCI): 0.34 (0.25 - 0.46) nmol i.t.
- antinociceptive effect in acute pain (naïve rats): 30 % MPE
- toxic effect (naïve rats): did not induce a toxic effect
- Response (ED50) with 95% confidence limits, Tail-flick (naïve rats): 2.78 (1.80-4.30) nmol i.t.
- duration of antinociceptive effect (naïve rats): 2 h
- effect in tail-flick test (naïve rats): increase the nociceptive threshold
- improvement of in vitro agonism at MOR (MOR [4]; vs 21): 6 fold
- loss in antagonism potency (hNK1R [8]): 1.5 log unit
- DOR binding increase (DOR [9]; vs 21): 10 factor
- antinociceptive effect by area under curve (CCI-exposed rats [10]): most potent antinociceptive effect

SMILES: Cc1cc(O)cc(C)c1C[C@H](N)C(=O)N[C@H](CCCNC(=N)N)C(=O)N[C@H]1Cc2ccccc2CN(CC(N)=O)C1=O [Compound 7, H-Dmt-D-Arg-Aba-Gly-NH2]
- toxic effect (CCI-exposed rats [1]; 1 nmol i.t., CCI rats): toxic effect
- effect in tail-flick test (naïve rats): increase the nociceptive threshold

SMILES: Cc1cc(O)cc(C)c1C[C@H](N)C(=O)N[C@H](CCCNC(=N)N)C(=O)N[C@H]1Cc2ccccc2CN(CCC(=O)N(C)Cc2cc(C(F)(F)F)cc(C(F)(F)F)c2)C1=O [Compound 21, H-Dmt-D-Arg-Aba-β-Ala-NMe-3’,5’-(CF3)2-Bn]
- loss in NK1R binding (hNK1R [6]; vs 4): 120 fold
- improvement of MOR binding (MOR [11]): 5 fold
- improvement of DOR binding (DOR [9]; vs 4 (Gly4 replaced by β-Ala)): 5 fold

SMILES: Cc1cc(O)cc(C)c1C[C@H](N)C(=O)N[C@H](CCCNC(=N)N)C(=O)N[C@H]1Cc2ccccc2CN(CC(=O)N(C)Cc2cc(C(F)(F)F)cc(C(F)(F)F)c2)C1=O [Compound 4, H-Dmt-D-Arg-Aba-Gly-NMe-3’,5’-(CF3)2-Bn]
- toxic effect (CCI-exposed rats [1]; 1 nmol i.t., CCI rats): not observed
- attenuation of allodynia, von Frey (CCI-exposed rats [1]; 1 nmol i.t., day 7 after CCI): 60 % MPE
- toxic effect (CCI-exposed rats [1]; highest investigated dose 9.5 nmol i.t., CCI rats, not shown): toxic effect
- Response (ED50) with 95% confidence limits, von Frey (CCI-exposed rats [1]; day 7 after CCI): 1.05 (0.65 - 1.69) nmol i.t.
- cross tolerance with morphine (CCI-exposed rats [7]): cross tolerance
- antinociceptive potency relative to i.p. administered morphine (mice [12]): 3.7 times
- Response (ED50) with 95% confidence limits, Cold plate (CCI-exposed rats [2]; day 7 after CCI): 1.14 (0.74 - 1.77) nmol i.t.
- antinociceptive effect in acute pain (naïve rats): 30 % MPE
- toxic effect (naïve rats): seizures and death of animals
- Response (ED50) with 95% confidence limits, Tail-flick (naïve rats): 1.66 (1.11-2.51) nmol i.t.
- effect in tail-flick test (naïve rats): increase the nociceptive threshold
